Experimental data from ChEMBL document CHEMBL5360649, “Potential Broad-Spectrum Antimicrobial, Wound Healing, and Disinfectant Cationic Peptide Crafted from Snake Venom” (J Med Chem, 2023).
Active and inactive are the calls of the source.

Tests used:
Lipopolysaccharide (LPS) = assay: Induction of Escherichia coli O111:B4 Lipopolysaccharide aggregate degradation at 40 uM incubated for 4 hrs by ESI-LC/MS analysis
Staphylococcus aureus [1] = assay: Induction of morphological changes in methicillin-resistant Staphylococcus aureus assessed as membrane damage at MIC concentration incubated for 60 mins by SEM analysis; format: functional, organism-based
Klebsiella pneumoniae [2] = assay: Antibiofilm activity against preformed biofilm in Klebsiella pneumoniae assessed as decrease in cell viability at MIC incubated overnight by MTT assay relative to control; format: functional
Klebsiella pneumoniae [3] = assay: Antibiofilm activity against Klebsiella pneumoniae assessed as clearance of preformed biofilm at 1 times of MIC incubated for 24 hrs by CV staining based analysis relative to control; format: functional
Pseudomonas aeruginosa [4] = assay: Antibacterial activity against Pseudomonas aeruginosa assessed as cell division block by measuring cellular elongation at 0.5 to 1 times of MIC incubated for 30 mins by SYTO9/PI staining based fluorescence microscopic analysis; format: functional, organism-based
[5] = Induction of wound healing in surgically-induced Albino Wistar rat wound model inoculated with methicillin-resistant Staphylococcus aureus assessed as decrease in mean open wound percentage at 10 uM measured after 11 days by photographic analysis (reference value: 32.25%); format: functional; parameters: scale not given: the % may be the effect or the level left; settings: time 11 day
Cell membrane [6] = assay: Induction of cytoplasmic membrane depolarization in Klebsiella pneumoniae assessed as increase in fluorescence intensity at 0.5 to 1 times of MIC incubated for 22 mins by DiSC3-5 dye based fluorescence method; format: subcellular
Escherichia coli [7] = assay: Induction of morphological changes in Escherichia coli assessed as membrane damage at MIC concentration incubated for 60 mins by SEM analysis; format: functional, organism-based
Cell membrane [8] = assay: Induction of inner membrane permeabilization in Klebsiella pneumoniae assessed as increase in fluorescence at 0.5 to 1 times of MIC incubated for 60 mins by PI staining based fluorescence analysis; format: subcellular
Escherichia coli [9] = assay: Antibacterial activity against Escherichia coli ATCC CRM-11229 assessed as inhibition of bacterial growth incubated for 24 hrs by CLSI protocol based microdilution method; format: functional
Klebsiella pneumoniae [10] = assay: Induction of morphological changes in carbapenem resistant Klebsiella pneumoniae ATCC BAA-1705 at MIC concentration incubated for 60 mins by SEM analysis; format: functional, organism-based
U-937 [11] = assay: Immunomodulatory activity in human U-937 cells assessed as reduction in LPS-induced TNF-alpha expression level incubated for 24 hrs by radioimmunoprecipitation based dot-plot analysis; format: functional, cell-based; settings: dose 5-10 µM
U-937 [12] = assay: Immunomodulatory activity in human U-937 cells assessed as reduction in LPS-induced IL-6 expression level incubated for 24 hrs by radioimmunoprecipitation based dot-plot analysis; format: functional, cell-based; settings: dose 5-10 µM
Cell membrane [13] = assay: Induction of outer membrane permeabilization in Escherichia coli at 0.5 to 1 times of MIC incubated for 5 to 20 mins by fluorescence based NPN uptake assay; format: subcellular; settings: time 5-20 min
Klebsiella pneumoniae [14] = assay: Antibiofilm activity against Klebsiella pneumoniae assessed as increase in dead cell proportion at MIC incubated overnight by SYTO9/PI staining based fluorescence analysis; format: functional, organism-based
Staphylococcus aureus [15] = assay: Antibiofilm activity against methicillin-resistant Staphylococcus aureus assessed as increase in dead cell proportion at 0.5 times of MIC incubated overnight by SYTO9/PI staining based fluorescence analysis; format: functional, organism-based
Klebsiella pneumoniae [16] = assay: Antibiofilm activity against Klebsiella pneumoniae assessed as eradication of preformed biofilm at 0.5 times of MIC incubated for 24 hrs by CV staining based analysis relative to control; format: functional
Staphylococcus aureus [17] = assay: Antibiofilm activity against methicillin-resistant Staphylococcus aureus in the presence of Na+; format: functional, organism-based
Escherichia coli [18] = assay: Antibacterial activity against Escherichia coli assessed as cell division block by measuring bacterial filamentation at 0.5 to 1 times of MIC incubated for 30 mins by SYTO9/PI staining based fluorescence microscopic analysis; format: functional, organism-based
Klebsiella pneumoniae [19] = assay: Antibiofilm activity against preformed biofilm in Klebsiella pneumoniae assessed as decrease in metabolic activity at MIC incubated overnight by MTT assay; format: functional, organism-based
Cell membrane [20] = assay: Induction of inner membrane permeabilization in methicillin-resistant Staphylococcus aureus assessed as increase in fluorescence at 0.5 to 1 times of MIC incubated for 60 mins by PI staining based fluorescence analysis; format: subcellular
Pseudomonas aeruginosa [21] = assay: Induction of morphological changes in Pseudomonas aeruginosa assessed as cellular destruction at MIC concentration incubated for 6 hrs by AFM analysis; format: functional, organism-based
Pseudomonas aeruginosa [22] = assay: Antibacterial activity against Pseudomonas aeruginosa assessed as induction of cellular damage at MIC concentration incubated for 30 mins by SYTO9/PI staining based fluorescence microscopic analysis; format: functional, organism-based
[23] = Cytotoxicity against mouse RAW264.7 cells assessed as cell viability at 12.5 uM incubated for 24 hrs by MTT assay relative to control; format: toxicity, cell-based; settings: read-out: Activity
Cell membrane [24] = assay: Induction of outer membrane permeabilization in methicillin-resistant Staphylococcus aureus at 0.5 to 1 times of MIC incubated for 5 to 20 mins by fluorescence based NPN uptake assay; format: subcellular; settings: time 5-20 min
Klebsiella pneumoniae [25] = assay: Antibacterial activity against carbapenem resistance Klebsiella pneumoniae ATCC BAA-1705 assessed as inhibition of bacterial growth incubated for 0.5 to 8.5 hrs by microtiter plate reader analysis; format: functional, organism-based; settings: dose 1.25-40 µM, time 0.5-8.5 hrs
Klebsiella pneumoniae [26] = assay: Induction of morphological changes in carbapenem resistant Klebsiella pneumoniae ATCC BAA-1705 at MIC concentration incubated for 6 hrs by AFM analysis; format: functional, organism-based
Rattus norvegicus [27] = species: Rattus norvegicus; assay: Induction of wound healing in surgically-induced Albino Wistar rat wound model assessed as reduction in inflammatory cell infiltration at 10 uM measured after 11 days by H&E staining based analysis; format: functional; settings: time 11.0 day
Pseudomonas aeruginosa [28] = assay: Induction of morphological changes in Pseudomonas aeruginosa at MIC concentration incubated for 6 hrs by AFM analysis; format: functional, organism-based
Klebsiella pneumoniae [29] = assay: Antibacterial activity against Klebsiella pneumoniae ATCC BAA-1705 assessed as inhibition of bacterial growth at 25 to 100 uM incubated overnight by spotting assay; format: functional, organism-based; settings: dose 25-100 µM
[30] = Cytotoxicity against human A549 cells assessed as cell viability at 12.5 uM incubated for 24 hrs by MTT assay relative to control; format: toxicity, cell-based; settings: read-out: Activity
Rattus norvegicus [31] = species: Rattus norvegicus; assay: Induction of wound healing in surgically-induced Albino Wistar rat wound model assessed as proper formation of sebaceous gland at 10 uM measured after 11 days by H&E staining based analysis; format: functional; settings: time 11.0 day
Klebsiella pneumoniae [32] = assay: Antibiofilm activity against preformed biofilm in Klebsiella pneumoniae assessed as decrease in cell viability at 0.5 times of MIC incubated overnight by MTT assay relative to control; format: functional
Cell membrane [33] = assay: Induction of outer membrane permeabilization in Pseudomonas aeruginosa at 0.5 to 1 times of MIC incubated for 5 to 20 mins by fluorescence based NPN uptake assay; format: subcellular; settings: time 5-20 min
Pseudomonas aeruginosa [34] = assay: Induction of morphological changes in Pseudomonas aeruginosa at MIC concentration incubated for 60 mins by SEM analysis; format: functional, organism-based
Escherichia coli [35] = assay: Induction of morphological changes in Escherichia coli assessed as cell blebbing at MIC concentration incubated for 60 mins by SEM analysis; format: functional, organism-based
[36] = Cytotoxicity against human WI-38 cells assessed as cell viability at 12.5 uM incubated for 24 hrs by MTT assay relative to control; format: toxicity, cell-based; settings: read-out: Activity
Rattus norvegicus [37] = species: Rattus norvegicus; assay: Induction of wound healing in surgically-induced Albino Wistar rat wound model assessed as densely packed epithelium containing keratinocytes at 10 uM measured after 11 days by H&E staining based analysis; format: functional; settings: time 11.0 day

H-FLPIIKWVKKFFWRWR-OH
3.5 µM: MIC (Escherichia coli [9])
~56%: Activity (Klebsiella pneumoniae [16])
17.22%: Activity [5]
~70%: Activity (Klebsiella pneumoniae [3])
active: Activity (Lipopolysaccharide (LPS)) | Activity (Staphylococcus aureus [1]) | Activity (Pseudomonas aeruginosa [4]) | Activity (Cell membrane [6]) | Activity (Escherichia coli [7]) | Activity (Cell membrane [8]) | Activity (Klebsiella pneumoniae [10]) | Activity (U-937 [11]) Dose-Dependent Effect | Activity (U-937 [12]) Dose-Dependent Effect | Activity (Cell membrane [13]) | Activity (Klebsiella pneumoniae [14]) | Activity (Staphylococcus aureus [17]) | Activity (Escherichia coli [18]) | Activity (Klebsiella pneumoniae [19]) | Activity (Cell membrane [20]) | Activity (Pseudomonas aeruginosa [21]) | Activity (Pseudomonas aeruginosa [22]) | Activity (Cell membrane [24]) | Activity (Klebsiella pneumoniae [25]) Dose-Dependent Effect | Activity (Klebsiella pneumoniae [26]) | Activity (Rattus norvegicus [27]) | Activity (Pseudomonas aeruginosa [28]) | Activity (Klebsiella pneumoniae [29]) | Activity (Rattus norvegicus [31]) | Activity (Cell membrane [33]) | Activity (Pseudomonas aeruginosa [34]) | Activity (Escherichia coli [35]) | Activity (Rattus norvegicus [37])
51.78%: Activity (Klebsiella pneumoniae [2])
74.3%: viability at 24 h, 12.5 µM [30]
91.5%: viability at 24 h, 12.5 µM [36]
inactive: Activity (Staphylococcus aureus [15])
> 90%: viability at 24 h, 12.5 µM [23]
79.96%: Activity (Klebsiella pneumoniae [32])
